SMILES strings stand for the structures.

Series [1] deals with PC12 cell line expressing EGFP-tagged HD exon 1 with Q74. The series is described as follows: Turnover of Q74 protein and aggregates in stable doxycycline-inducible PC12 cells after switching expression off. The series is classed as cell-based, rat. On the procedure:
(§1) African green monkey kidney cells (COS-7) were grown in Dulbecco's Modified Eagle Medium (DMEM, Sigma) supplemented with 10% Fetal Bovine Serum (FBS), 100 U/ml Penicillin/Streptomycin, 2 mM L-Glutamine and 1 mM Sodium Pyruvate at 37° C., 5% Carbon dioxide. The cells were grown on coverslips in six-well plates for immunofluorescence analysis, or were directly grown in six-well plates to 60-80% confluency for 24 hours for western blot analysis. Transfection was done using LipofectAMINE reagent (Invitrogen) using the manufacturer's protocol. The transfection mixture was replaced by normal culture medium after 5 hours incubation at 37° C. and the transfected cells were analysed by immunofluorescence or immunoblot 48 hours after transfection. The cells were left untreated or treated with 10 mM 3-methyl adenine (3-MA, Sigma), 0.5 mM N^6, N^6, Dimethyl adenosine (DMA, Sigma), 0.2 μg/ml Rapamycin (Sigma), 200 nM Bafilomycin A1 (BafA1, Sigma), 10 μM Lactacystin (Sigma) or 10 μM epoxomicin (Affinity research products ltd.) for 15 hours before fixation for immunofluorescence or processing for western blots. DMA, BafA1, epoxomicin and rapamycin were dissolved in DMSO and 3-MA and lactacystin were in water. Equal amounts of water or DMSO were added to the untreated controls, where relevant. The cells on coverslips were rinsed with 1×PBS, fixed with 4% paraformaldehyde in 1×PBS for 20 min and mounted in antifadent supplemented with 4′,6-diamidino-2-phenylindole (DAPI, 3 μg/ml, Sigma) to allow visualisation of nuclear morphology. The PC12 stable cells were maintained at 75 μg/ml hygromycin in standard medium consisting of high glucose DMEM (Sigma) with 100 U/ml penicillin/streptomycin, 2 mM L-glutamine (Invitrogen), 10% heat-inactivated horse serum (Invitrogen), 5% Tet-approved fetal bovine serum (FBS) (Clontech) and 100 μg/ml G418 (Invitrogen) at 37° C., 10% CO2. The cells were seeded at 1-2×10^5 per well in 6-well plates and were induced with 1 μg/ml doxycycline (Sigma) for 8 hours. The expression of transgenes was switched off by removing doxycycline from the medium. Cells were either left untreated or treated with 3-MA, BafA1, epoxomicin, lactacystin, rapamycin, 10 μg/ml cycloheximide (Sigma) or cycloheximide+rapamycin at the concentrations specified above for 24, 48 or 72 hours and the medium with the inhibitors/activator changed every 24 hours. The cells were then scraped off from the wells into 1.5 ml eppendorf tubes, pelleted at 8000 rpm and washed twice with 1×PBS. They were either fixed with 4% paraformaldehyde for 20 minutes and mounted in DAPI over coverslips on glass slides or processed for western blot analysis. CCI-779 was supplied by Wyeth Pharmaceuticals (Philadelphia). For tissue culture experiments, a stock solution of 1M in ethanol was prepared the day of experiment and was diluted in the appropriate medium
The pellets for westerns from COS-7 or PC12 cells were lysed on ice in Laemmli buffer (62.5 mM Tris-HCl pH6.8, 5% β-mercaptoethanol, 10% glycerol, and 0.01% bromophenol blue) for 30 min in the presence of protease inhibitors (Roche Diagnostics). The lysates were subjected to SDS-PAGE (10%) electrophoresis and proteins transferred onto nitrocellulose membrane (Amersham Pharmacia Biotech). The primary antibodies used include mouse monoclonal anti-GFP antibody (8362-1, Clontech) at 1:2000, rabbit monoclonal anti-actin antibody (A2066, Sigma) at 1:3000, mouse monoclonal anti-tubulin antibody (Clone DM 1A, Sigma) at 1:1000 and mouse monoclonal anti-HA antibody (Covance) at 1:1000. Blots were probed with Horse Radish Peroxidase (HRP) conjugated anti-mouse or anti-rabbit IgG (Bio Rad) at 1:2000. Bands were visualised using the ECL detection reagent (Amersham). […]

Series [2] concerns COS-7 cells expressing EGFP fused to 19 alanines (A19). Description: Aggregate formation and abnormal cell nuclei in transiently transfected COS-7 cells expressing A19. The series is classed as cell-based, African green monkey. To be noted: immunofluorescence; 48 hours after transfection; drug 15 hours.
Text: (§2) Mammalian expression vectors comprising EGFP (pEGFP-C1, Clontech) fused at its C-terminus with a Huntington's Disease gene exon 1 fragment with 74 polyglutamine repeats (Q74) or a polyalanine stretch of 19 repeats (A19) were used (Rankin, J. et al (2000) Biochem. J., 348, 15-19; Narain, Y. et al (1999) J. Med. Genet., 36, 739-746.). A Haemagglutinin-tagged Huntington's Disease gene exon 1 fragment with 74 polyglutamine repeats in pHM6 vector (Q74-HA) was also used. The PC12 stable lines expressing exon 1 of Huntington gene were as described in Wyttenbach A. et al., (2001) Hum. Mol. Genet. 10 1829-45.
as §1
(§3) The pellets for westerns from COS-7 or PC12 cells were lysed on ice in Laemmli buffer (62.5 mM Tris-HCl pH6.8, 5% β-mercaptoethanol, 10% glycerol, and 0.01% bromophenol blue) for 30 min in the presence of protease inhibitors (Roche Diagnostics). The lysates were subjected to SDS-PAGE (10%) electrophoresis and proteins transferred onto nitrocellulose membrane (Amersham Pharmacia Biotech). […]

Series [3] has as its system COS-7 cells expressing an exon 1 fragment of the HD gene with 74 glutamines (Q74). The series is described as follows: Aggregate formation and abnormal cell nuclei in transiently transfected COS-7 cells expressing Q74. The series is classed as cell-based, African green monkey. Conditions: 48 hours after transfection.
Text: as §2, §1, §3

Series [4] relates to human wild-type, A30P and A53T α-synuclein. Description: α-Synuclein degradation in inducible PC12 cell lines (western blot), all forms. The series is classed as cell-based. An excerpt:
Human α-synuclein with a HA tag at the N-terminus and a 6His tag at the C-terminus was amplified from pHM6α-synuclein constructs (Furlong, R. A. et a; 1 (2000) Biochem. J. 346, 577581) and inserted into pTRE2 hyg vector (Clontech) using Nhe I/Sal I sites. Constructs were confirmed by sequencing before use. The pTRE2 hygα-synuclein construct and pTettTS (Clontech) were cotransfected into PC12 TetOn cells (Clontech), using Lipofectamine (Invitrogen) and Plus Reagent (Invitrogen). Single colonies were isolated using cloning cylinders (Sigma) and cells were grown and tested for α-synuclein expression upon induction. Cell lines were subjected to a further round of purification from single colonies to ensure that lines were pure.
PC12 cells were grown in Dulbecco's modified eagle's medium (DMEM, Sigma) supplemented with 10% horse serum (Sigma), 5% fetal bovine serum (Sigma), 100 U/ml penicillin/streptomycin, 2 mM L-glutamine, […] G418 (Invitrogen) and […] hygromycin B (Calbiochem) at 37° C., 10% CO2. To induce differentiation, cells were grown in media containing 1% horse serum and 100 ng/ml nerve growth factor (2.5S, Upstate Biotechnology) and incubated for about 5 days. Cells were induced to express synuclein with […] doxycycline (Sigma).
Cells were induced for 24 hours and then washed twice with media to remove doxycycline. Then cells were incubated in […] media containing either 10 mM 3-methyladenine (3MA, Sigma), 200 nM bafilomycin A1 (Sigma), […] rapamycin (Sigma), […] lactacystin (Sigma), […] epoxomicin (Affinity Research Products Ltd) or carrier controls (water or DMSO (Sigma)). 3MA and lactacystin were made up in water and rapamycin, epoxomicin and bafilomycin were dissolved in DMSO.
After 24 hours the media was replaced with fresh media plus drug and after a further 24 hours cell pellets were collected and stored at −80° C. until required.
Cell pellets were collected and stored at −80° C. until needed. Cells were lysed on ice in lysis buffer: 1% TritonX100, 20 mM TRIS pH7.5, 137 mM NaCl, 1 mM EGTA, 10% glycerol, 1.5 mM MgCl2 and protease inhibitor cocktail (Complete, Roche).
Samples were then mixed with loading buffer: 62.5 mM TRIS pH 6.8, 2% SDS, 10% glycerol, 0.05% bromophenol blue, 100 mM dithiothreitol and 700 mM β-mercaptoethanol and boiled before loading onto 14% denaturing polyacrylamide gels.
Each lane was loaded with protein from a similar number of cells, based on cell counting at the time of seeding. Proteins were transferred onto Hybond ECL nitrocellulose membrane (Amersham). α-Synuclein was detected with an antiHA monoclonal antibody (Covance) at 1:1000 dilution with 4-18 hours incubation. HRP conjugated antimouse antibody (Amersham) at 1:2000 dilution was then added to blots and antibody was detected using ECL blotting reagents (Amersham) and Hyperfilm ECL (Amersham). Blots were stripped and then reprobed for α-tubulin (Sigma) at 1:1000 dilution.
PC12 cell lines as described above (i.e. mitotic and neuronally differentiated wild-type, A53T and A30P PC12 lines) were induced for 24 hours, then doxycycline was removed and the drugs were added for 48 hours. The trends we observed were similar in cells treated with drugs for 24 and 72 hours.
For orientation: In western blotting, separated proteins are transferred to a membrane and probed.

Turning to `C[C@@H]1C[C@@H]([C@H](O)CC2CC(=O)NC(=O)C2)C(=O)[C@@H](C)C1` [cycloheximide], the “cell fluorescence (EGFP-Q74 clearance)” value in series [1] (8 h ON then 72 h OFF with drug, 0.2 μg/ml rapamycin, 10 μg/ml cycloheximide) is reported as “increased”. Further, in series [1] (8 h ON then 72 h OFF with drug, vs time-matched control), the “numbers of aggregate containing cells / visible aggregates” value is on record as “increased”.
Consider `CN(C)c1ncnc2c1ncn2[C@@H]1O[C@H](CO)[C@@H](O)[C@H]1O` [DMA, N^6,N^6-dimethyladenosine], for which the “appearance (size, number) of A19 aggregates in cells with aggregates” value in series [2] is reported as “Identical aggregate phenotypes”. In addition, in series [3] (immunofluorescence, drug 15 hours), the “appearance (size, number) of Q74 aggregates in cells with aggregates” value is on record as “Identical aggregate phenotypes”.
As to `CC(=O)N[C@@H](CSC(=O)[C@]1([C@@H](O)C(C)C)NC(=O)[C@H](C)[C@@H]1O)C(=O)O` [lactacystin], the “cell death or overt aggregate formation” value in series [4] is on record as “did not cause increased cell death or overt aggregate formation”. Moreover, in series [4] (induced 24 hours, doxycycline removed, drug 48 hours, cycling and differentiated cells, 0.2 mg/ml rapamycin, 10 mM lactacystin, 10 mM epoxomicin [sic]), the α-synuclein levels entry is “increase”. The “number of aggregate-containing cells” value in series [1] (8 h ON then 48 h OFF with 10 μM epoxomicin or 10 μM lactacystin, vs control) is listed as “increased Q74 aggregation”. For the same compound, the “proportions of Q74-expressing cells with aggregates” value in series [3] (drug for 15 hours before fixing: 10 mM 3-MA, 0.5 mM DMA, 200 nM BafA1, 0.2 μg/ml rapamycin, 10 μM epoxomicin, 10 μM lactacystin, vs untreated) is reported as “increases”.

These data come from patent US20070155771A1, “Methods and means for treating protein conformational disorders” (priority 2003, published 2007).
